Assay results taken from patent US20240150290A1, “HETEROCYCLIC P2Y14 RECEPTOR ANTAGONISTS” (priority 2021, published 2024).

Experiments:
CYP3A4 = CYP3A4 (Homo sapiens, UniProt P08684); assay: CYP3A4 inhibition; assay type: in vitro ADME; conditions: Table 4
[1] = Microsomal stability, human; conditions: Table 4
Plasma stability, mouse = conditions: Table 4
Plasma stability, rat = conditions: Table 4
[2] = Microsomal stability, rat; assay type: in vitro ADME; conditions: Table 4
[3] = Stability in simulated intestinal fluid; conditions: Table 4
[4] = Microsomal stability, mouse; assay type: in vitro ADME; conditions: Table 4
[5] = Aqueous solubility, pION method; conditions: mean ± SD, Table 4
[6] = test system: CCI-induced mechano-allodynia; assay: Chronic constriction injury (CCI) mouse model of neuropathic pain; conditions: 10 μmol/kg, i.p., day 7 post-injury
CYP2C19 = CYP2C19 (Homo sapiens, UniProt P33261); assay: CYP2C19 inhibition; assay type: in vitro ADME; conditions: Table 4
in vivo = conditions: Wistar, rat, iv, 0.5 mg/kg
CYP2D6 = CYP2D6 (Homo sapiens, UniProt P10635); assay: CYP2D6 inhibition; assay type: in vitro ADME; conditions: Table 4
[7] = Pharmacokinetics in Wistar rats (i.v., i.p.)
CYP2C9 = CYP2C9 (Homo sapiens, UniProt P11712); assay: CYP2C9 inhibition; conditions: read-out: CYP2C9 (IC50); Table 4
hERG ion channel = hERG ion channel (Homo sapiens, UniProt Q12809); assay: hERG ion channel block, patch clamp assay
mP2Y14R = target: T1, mP2Y14R (Mus musculus, UniProt Q9ESG6); assay: cell-based
T1 sequence (Q9ESG6 1-338): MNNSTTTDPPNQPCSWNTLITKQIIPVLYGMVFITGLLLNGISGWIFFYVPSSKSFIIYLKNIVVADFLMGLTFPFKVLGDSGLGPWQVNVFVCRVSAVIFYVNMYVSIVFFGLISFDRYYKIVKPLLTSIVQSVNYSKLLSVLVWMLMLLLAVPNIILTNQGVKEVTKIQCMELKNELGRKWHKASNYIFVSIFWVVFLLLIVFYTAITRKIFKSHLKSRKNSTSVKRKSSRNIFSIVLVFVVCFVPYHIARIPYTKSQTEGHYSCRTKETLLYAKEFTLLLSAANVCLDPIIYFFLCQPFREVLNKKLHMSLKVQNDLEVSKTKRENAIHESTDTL
From the text: Desirably, receptor affinity is maintained across species, facilitating performance in in vivo preclinical testing in small animals, with the mouse being the most commonly used species in initial evaluation.

[8] = Stability in simulated gastric fluid; conditions: Table 4
hP2Y14R = target: T2, hP2Y14R (Homo sapiens, UniProt Q15391); assay: Inhibition of fluorescent antagonist binding in whole hP2Y14R-expressing CHO cells (flow cytometry); conditions: Table 2; tracer 2 (20 nM, 45 min), CHO cells; read-out: hP2Y14R, IC50
T2 construct: expressed in transfected cells; host or cells: CHO cells
T2 sequence (Q15391 1-338): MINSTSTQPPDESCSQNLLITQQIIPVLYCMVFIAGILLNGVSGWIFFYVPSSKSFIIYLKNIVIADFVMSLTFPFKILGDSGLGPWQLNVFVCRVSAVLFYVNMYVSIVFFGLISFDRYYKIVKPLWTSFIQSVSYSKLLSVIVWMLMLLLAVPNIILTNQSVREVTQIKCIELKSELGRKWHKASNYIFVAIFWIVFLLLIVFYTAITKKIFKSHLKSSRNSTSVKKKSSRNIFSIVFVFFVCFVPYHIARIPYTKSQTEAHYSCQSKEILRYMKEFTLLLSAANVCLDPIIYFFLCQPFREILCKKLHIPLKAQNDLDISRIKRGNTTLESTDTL

CYP1A2 = target: T3, CYP1A2 (Homo sapiens, UniProt P05177); assay: CYP1A2 inhibition; assay type: in vitro ADME; conditions: Table 4
T3 sequence (P05177 1-516): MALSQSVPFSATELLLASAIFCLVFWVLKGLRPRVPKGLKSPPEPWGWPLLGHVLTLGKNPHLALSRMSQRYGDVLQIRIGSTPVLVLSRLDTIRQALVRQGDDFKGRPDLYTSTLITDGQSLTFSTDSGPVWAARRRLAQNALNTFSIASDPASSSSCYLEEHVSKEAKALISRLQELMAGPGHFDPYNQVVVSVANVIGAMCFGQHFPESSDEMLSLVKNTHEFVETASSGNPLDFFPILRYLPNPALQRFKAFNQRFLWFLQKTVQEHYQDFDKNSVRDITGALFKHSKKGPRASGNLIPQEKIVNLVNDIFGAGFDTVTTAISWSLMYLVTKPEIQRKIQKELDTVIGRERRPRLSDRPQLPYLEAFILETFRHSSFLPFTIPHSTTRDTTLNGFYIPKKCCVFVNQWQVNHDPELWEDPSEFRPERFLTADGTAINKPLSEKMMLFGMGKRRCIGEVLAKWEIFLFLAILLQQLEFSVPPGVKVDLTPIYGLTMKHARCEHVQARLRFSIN

CYP3A4, sequence (P08684 whole entry): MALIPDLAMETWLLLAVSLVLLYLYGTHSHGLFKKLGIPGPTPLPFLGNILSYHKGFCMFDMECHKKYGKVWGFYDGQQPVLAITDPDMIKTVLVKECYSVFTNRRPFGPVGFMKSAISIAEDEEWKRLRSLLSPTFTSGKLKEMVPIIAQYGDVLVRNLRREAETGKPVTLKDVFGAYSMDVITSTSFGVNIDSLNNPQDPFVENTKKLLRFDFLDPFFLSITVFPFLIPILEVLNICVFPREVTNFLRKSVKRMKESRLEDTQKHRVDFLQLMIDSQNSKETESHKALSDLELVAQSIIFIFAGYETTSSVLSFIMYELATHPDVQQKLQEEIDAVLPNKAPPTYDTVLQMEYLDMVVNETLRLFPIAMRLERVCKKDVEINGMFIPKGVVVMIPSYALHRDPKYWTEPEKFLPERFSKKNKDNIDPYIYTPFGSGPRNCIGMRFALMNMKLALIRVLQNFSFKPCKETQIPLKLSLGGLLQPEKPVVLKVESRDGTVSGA
hERG ion channel, sequence (Q12809 whole entry): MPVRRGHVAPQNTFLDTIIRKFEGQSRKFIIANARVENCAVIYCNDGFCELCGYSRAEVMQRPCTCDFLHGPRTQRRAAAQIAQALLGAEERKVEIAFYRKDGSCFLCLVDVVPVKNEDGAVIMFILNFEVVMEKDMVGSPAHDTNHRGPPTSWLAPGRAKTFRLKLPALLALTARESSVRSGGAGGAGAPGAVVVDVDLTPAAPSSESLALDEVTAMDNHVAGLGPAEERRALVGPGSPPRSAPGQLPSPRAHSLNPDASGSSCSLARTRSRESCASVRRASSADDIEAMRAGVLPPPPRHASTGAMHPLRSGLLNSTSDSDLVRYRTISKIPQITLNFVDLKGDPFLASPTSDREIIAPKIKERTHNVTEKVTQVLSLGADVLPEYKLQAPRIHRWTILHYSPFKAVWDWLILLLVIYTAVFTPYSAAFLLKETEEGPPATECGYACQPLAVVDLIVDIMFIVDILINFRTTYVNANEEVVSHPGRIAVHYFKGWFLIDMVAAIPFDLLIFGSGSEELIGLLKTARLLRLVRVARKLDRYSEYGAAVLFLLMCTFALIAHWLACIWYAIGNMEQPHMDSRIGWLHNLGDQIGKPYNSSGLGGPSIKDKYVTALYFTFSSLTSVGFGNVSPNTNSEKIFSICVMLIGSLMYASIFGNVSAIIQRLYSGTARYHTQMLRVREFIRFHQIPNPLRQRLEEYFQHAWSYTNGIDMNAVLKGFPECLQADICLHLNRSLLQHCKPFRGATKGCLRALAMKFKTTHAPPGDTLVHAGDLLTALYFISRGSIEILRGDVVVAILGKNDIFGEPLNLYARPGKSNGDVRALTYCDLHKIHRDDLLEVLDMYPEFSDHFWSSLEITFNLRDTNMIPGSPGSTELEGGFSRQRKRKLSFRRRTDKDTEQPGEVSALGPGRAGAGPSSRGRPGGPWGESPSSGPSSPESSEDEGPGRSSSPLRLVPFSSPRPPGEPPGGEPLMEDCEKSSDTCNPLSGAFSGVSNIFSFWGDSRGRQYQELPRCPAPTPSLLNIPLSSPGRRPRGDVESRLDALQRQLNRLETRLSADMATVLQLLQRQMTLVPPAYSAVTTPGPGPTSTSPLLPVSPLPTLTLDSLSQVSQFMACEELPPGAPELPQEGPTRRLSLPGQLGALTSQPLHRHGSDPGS
CYP2D6, sequence (P10635 whole entry): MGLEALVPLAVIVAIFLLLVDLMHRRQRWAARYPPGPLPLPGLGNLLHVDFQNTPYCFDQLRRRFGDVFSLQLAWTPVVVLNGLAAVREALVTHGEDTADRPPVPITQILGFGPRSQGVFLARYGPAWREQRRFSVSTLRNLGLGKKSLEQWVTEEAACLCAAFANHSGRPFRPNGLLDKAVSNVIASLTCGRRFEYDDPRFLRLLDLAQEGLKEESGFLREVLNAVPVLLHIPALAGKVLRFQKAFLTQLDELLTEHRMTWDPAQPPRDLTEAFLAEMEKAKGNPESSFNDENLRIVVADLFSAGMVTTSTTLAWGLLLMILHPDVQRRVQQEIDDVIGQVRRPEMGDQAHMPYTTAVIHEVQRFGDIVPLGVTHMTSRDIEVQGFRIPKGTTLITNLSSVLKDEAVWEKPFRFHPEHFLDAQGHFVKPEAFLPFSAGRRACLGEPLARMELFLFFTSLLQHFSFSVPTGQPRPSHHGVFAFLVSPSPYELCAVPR
CYP2C9, sequence (P11712 whole entry): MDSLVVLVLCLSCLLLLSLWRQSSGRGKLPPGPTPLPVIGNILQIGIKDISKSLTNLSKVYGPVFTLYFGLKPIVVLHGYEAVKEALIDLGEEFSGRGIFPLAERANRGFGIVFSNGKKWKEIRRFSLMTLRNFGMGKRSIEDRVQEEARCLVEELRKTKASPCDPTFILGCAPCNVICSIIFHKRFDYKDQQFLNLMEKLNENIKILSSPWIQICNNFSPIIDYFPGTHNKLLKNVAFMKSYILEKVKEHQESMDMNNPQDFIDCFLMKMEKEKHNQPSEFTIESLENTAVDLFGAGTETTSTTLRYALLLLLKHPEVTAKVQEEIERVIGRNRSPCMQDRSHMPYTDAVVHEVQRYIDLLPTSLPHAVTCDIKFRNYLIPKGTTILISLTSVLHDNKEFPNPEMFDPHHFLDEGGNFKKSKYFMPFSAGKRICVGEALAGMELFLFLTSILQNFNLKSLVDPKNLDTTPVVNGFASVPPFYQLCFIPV
CYP2C19, sequence (P33261 whole entry): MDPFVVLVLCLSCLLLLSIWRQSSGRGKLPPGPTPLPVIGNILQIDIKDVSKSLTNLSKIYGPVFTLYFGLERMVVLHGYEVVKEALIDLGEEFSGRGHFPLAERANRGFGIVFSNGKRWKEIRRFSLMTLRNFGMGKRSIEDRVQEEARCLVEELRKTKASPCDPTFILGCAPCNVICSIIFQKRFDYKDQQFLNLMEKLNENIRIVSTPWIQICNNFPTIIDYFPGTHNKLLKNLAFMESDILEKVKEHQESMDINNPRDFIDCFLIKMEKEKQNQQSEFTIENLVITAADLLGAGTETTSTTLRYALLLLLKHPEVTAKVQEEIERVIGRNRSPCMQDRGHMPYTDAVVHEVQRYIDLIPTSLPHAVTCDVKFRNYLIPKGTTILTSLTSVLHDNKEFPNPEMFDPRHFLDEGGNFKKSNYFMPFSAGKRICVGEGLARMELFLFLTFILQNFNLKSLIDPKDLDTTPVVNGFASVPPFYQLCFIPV

In the case of `O=C(O)c1cc(-c2ccc(-c3cc(CO)on3)cc2)c2ccc(-c3ccc(C(F)(F)F)cc3)cc2c1` [Compound 32, 4-(4-(5-(Hydroxymethyl)isoxazol-3-yl)phenyl)-7-(4-(trifluoromethyl)phenyl)-2-naphthoic acid], the IC50 (CYP3A4) is reported as > 30 µM, the “Microsomal stability (t1/2, min)” value [1] is reported as > 240 min and the “Plasma stability (t1/2, min)” value (Plasma stability, mouse) is reported as >240 (m) min. For the same molecule, the “Plasma stability (t1/2, min)” value (Plasma stability, rat) was “TBD (h); >240 (r); min”, the “Microsomal stability (t1/2, min)” value [2] was 47.7 min and the “Simulated intestinal fluid (t1/2, min)” value [3] was >240 min. The “Microsomal stability (t1/2, min)” value [4] was >240 (m) min, the “aqueous solubility (pH 4.0, μg/mL)” value ([5]; pH 4.0) was 0.14 ± 0.02 μg/mL and the “aqueous solubility (pH 7.4, μg/mL)” value ([5]; pH 7.4) was 7.63 ± 1.93 μg/mL. For the same molecule, the “reversal of mechano-allodynia (figure legend)” value [6] was “reversal of CCI-induced mechano-allodynia”, the IC50 (CYP2C19) was > 30 µM and the bioavailability (in vivo) was 100%. The IC50 (CYP2D6) was > 30 µM, the “t1/2” value ([7]; i.v. administration in rat, 0.5 mg/kg, Table 4) was 0.689 h and the “AUC0-last” value ([7]; rat, i.p., 1.0 mg/kg) was 650 ng·h/mL. For the same molecule, the “AUC0-∞” value ([7]; rat, i.p., 1.0 mg/kg) was 700 ng·h/mL, the “Cl” value ([7]; rat, i.p., 1.0 mg/kg) was 23.83 mL/min/kg and the “Cmax” value ([7]; rat, i.p., 1.0 mg/kg) was 88.4 ng/mL. The “F (%)” value ([7]; rat, i.p., 1.0 mg/kg) was 139%, the “Kel” value ([7]; rat, i.p., 1.0 mg/kg) was 0.096 h⁻¹ and the “T1/2” value ([7]; rat, i.p., 1.0 mg/kg) was 7.23 h. For the same molecule, the “Vd (mL/kg)” value ([7]; rat, i.p., 1.0 mg/kg) was 14,900 mL/kg, the “AUC0-last” value ([7]; rat, i.p., 3.0 mg/kg) was 2060 ng·h/mL and the “AUC0-∞” value ([7]; rat, i.p., 3.0 mg/kg) was 2120 ng·h/mL. The “Cl” value ([7]; rat, i.p., 3.0 mg/kg) was 23.67 mL/min/kg, the “Cmax” value ([7]; rat, i.p., 3.0 mg/kg) was 315 ng/mL and the “F (%)” value ([7]; rat, i.p., 3.0 mg/kg) was 147%. For the same molecule, the “Kel” value ([7]; rat, i.p., 3.0 mg/kg) was 0.148 h⁻¹, the “T1/2” value ([7]; rat, i.p., 3.0 mg/kg) was 4.68 h and the “Vd” value ([7]; rat, i.p., 3.0 mg/kg) was 9.57 L/kg. For the same molecule, the “AUC0-last” value ([7]; rat, i.p., 10 mg/kg) was 4900 ng·h/mL, the “AUC0-∞” value ([7]; rat, i.p., 10 mg/kg) was 4920 ng·h/mL and the “Cl” value ([7]; rat, i.p., 10 mg/kg) was 33.83 mL/min/kg. For the same molecule, the “Cmax” value ([7]; rat, i.p., 10 mg/kg) was 786 ng/mL, the “F (%)” value ([7]; rat, i.p., 10 mg/kg) was 105% and the “Kel” value ([7]; rat, i.p., 10 mg/kg) was 0.233 h⁻¹. The “T1/2” value ([7]; rat, i.p., 10 mg/kg) was 2.98 h, the “Vd” value ([7]; rat, i.p., 10 mg/kg) was 8.73 L/kg and the “AUC0-last” value ([7]; rat, i.v., 0.5 mg/kg) was 234 ng·h/mL. The “AUC0-∞” value ([7]; rat, i.v., 0.5 mg/kg) was 238 ng·h/mL, the “Cl” value ([7]; rat, i.v., 0.5 mg/kg) was 35.17 mL/min/kg and the “Cmax” value ([7]; rat, i.v., 0.5 mg/kg) was 359 ng/mL. For the same molecule, the “Kel” value ([7]; rat, i.v., 0.5 mg/kg) was 1.01 h⁻¹, the “T1/2” value ([7]; rat, i.v., 0.5 mg/kg) was 0.689 h and the “Vd” value ([7]; rat, i.v., 0.5 mg/kg) was 2.09 L/kg. The IC50 (CYP2C9) was 10.4 µM, the IC50 (hERG ion channel) was > 30 µM and the “affinity at the mP2Y14R vs the human homologue” value (mP2Y14R; comparison of species, in words) was “nearly the same affinity in the two species”. For the same molecule, the IC50 (mP2Y14R; read-out: mP2Y14R, IC50, Table 2, tracer 2 (20 nM, 45 min), HEK293 cells) was 0.0186 ± 0.0084 µM, the “Simulated gastric fluid (t1/2, min)” value [8] was 161 min and the IC50 (hP2Y14R) was 0.015 ± 0.0044 µM. The IC50 (CYP1A2) was > 30 µM.
